The values below come from patent publication US6545050B1, “Aryl sulphonamide amino acid esters and analogues” (Bayer Aktiengesellschaft, priority 1998, dated 2003).

Counter-ions that a name gives are not always drawn.

One data set deals with T1, rat CB1 receptor (Rattus norvegicus, UniProt P20272).
T1 construct: contains an open reading frame of 1419 base pairs which corresponds to a protein of 473 amino acids; expressed in transfected cells; host or cells: CHOluc9 reporter cells stably transfected with plasmid CMV-RH (rat CB1 cDNA in pRc/CMV)
The data set is described as follows: CB1 luciferase reporter gene test (CHOluc9 cells stably transfected with rat CB1). Format: cell-based. Particulars: forskolin stimulated. The protocol:
CB1—Luciferase Reporter Gene Test
1. Cloning of the Rat Cannabinoid Receptor CB1
Total RNA from rat brain (the tissue was taken from freshly killed animals and shock-frozen in liquid nitrogen) was isolated by acidic guanidinium thiocyanate/phenol/chloroform extraction (J. Biol. Chem. 1979, 18, 5294) and converted into cDNA by means of reverse transcriptase and random primers (in each case from Invitrogen). The polymerase chain reaction (PCR, conditions: 4 min 94° C., 1H; 1 min 94° C.; 2 min 53° C.; 1 min 72° C., 50 cycles; 1 min 94° C., 2 min 53° C., 4 min 72° C., 1H) was carried out in a Perkin Elmer thermocycler using the enzyme Taq polymerase (Perkin Elmer); the oligonucleotide primers employed (bases 99 to 122: 5′63′, “down”; 1556-1575: 3′75′, “up”) were derived from the published sequence of the rat cannabinoid receptor (Nature 1990, 346, 561) and were synthesized on a DNA synthesizer, model 1380 from Applied Biosystems. One part of the PCR reaction was separated in a 1% strength agarose gel in 1H TBE buffer and then stained with ethidium bromide, only one band having the expected length being visible (approximately 1.5 kb). This PCR product was subcloned into the TA cloning vector (Invitrogen) and the nucleotide sequence of the insert was determined by the dideoxynucleotide chain termination reaction using T7DNA polymerase (Sequenase, USA/Amersham). The insert has a length of 1477 base pairs and contains an open reading frame of 1419 base pairs which corresponds to a protein of 473 amino acids. The number of base pairs, the position of the open reading frame and the number of amino acids agree with the published sequence. Computer analyses were carried out with the aid of the GCG software suite (Genetic Computer Group). The cDNA insert was subcloned into the expression vector pRc/CMV (Invitrogen) after partial digestion with HindIII and NotI (Biolabs). This construct (plasmid CMV-RH) was employed for transfection experiments.
2. Stable Transfection of the CHOluc9 Reporter Cells
CHOluc9 cells were cultured in 50% Dulbecco's modified Eagle medium/50% F-12 (DMEM/F12) which contained 10% foetal calf serum (FCS). Transfections were prepared in 6-well plates. 7.5 μg of Qiagen-purified CMV-RH plasmid DNA were added per […] with the DOTAP transfection system, corresponding to the experimental protocol of the manufacturer (Boehringer Mannheim). Transfected cells were selected using 1 mg/ml G418 and individual clones were obtained by limiting dilution in 96-well plates. Cell lines which express the cannabinoid receptor were identified for the inhibition of reporter gene expression after incubation with the cannabinoid receptor agonist, WIN-55,212-2, in the presence of forskolin. Several stably transfected and subcloned cell lines were further characterized by means of RT-PCR, as described under 1.
3. Test Optimization and Pharmacological Characterization of the CHOCB1 Reporter Cell Line
With the aim of high sensitivity and reproducibility, low variance and high suitability for carrying out on the robotic system, the luciferase test was optimized by variation of several test parameters, such as, for example, cell density, duration of the growth phase and the test incubation, forskolin concentration, medium composition. The following test protocol was used for pharmacological characterization of the cells and for robot-assisted substance screening: the stock cultures were cultured in 50% Dulbecco's modified Eagle medium/50% F-12 (DMEM/F12) with 10% FCS at 37° C. under 10% CO2 and in each case split 1:10 after 2 to 3 days. Test cultures were inoculated into 96-well plates at 5000 cells per well and cultured at 37° C. for 70 hours. The cultures were then carefully washed with phosphate-buffered saline and reconstituted using serum-free ultra-CHO medium (Bio-Whittaker). The substances dissolved in DMSO were diluted 1H in medium and pipetted into the test cultures (maximum DMSO final concentration in the test batch: 0.5%). […]
A general note: Reporter assays use an easily measured gene product as a stand-in for the process of interest.

Data set [1] can be described thus: Solubility determination by precipitation method in physiological saline. Format: physicochemical. Particulars: saline or isotonic, kinetic from dmso stock, 25° C., shaken 1 hour, HPLC. As for the experimental part: To determine the solubility, a precipitation method was used:
10 mg of the test substance are completely dissolved in 50 μl of DMSO (stock solution). From this solution, 20 μl are added to 2000 μl of physiological saline. This solution in turn is shaken at 25° C. in a Thermomixer Comfort (from Eppendorf) at 1400 rpm for 1 hour, for equilibration.
The precipitated fractions of the test substance are centrifuged off at 14,000 rpm for 5 min, using a Biofuge 15 from Heraeus. 1300 μl of the supernatant are again centrifuged using a Microfuge from Beckmann, at 45,000 rpm=125,000 g.
10 μl of this centrifugation supernatant are then diluted with 1000 μl of DMSO, and this solution is measured by HPLC. (Hewlett Packard 1090, method: gradient of 100% PBS buffer pH=4 over 15 min to 10% buffer/90% acetonitrile, column: RP18)
The measured peak area of the HPLC determination is converted into the substance concentration using a calibration curve. For the calibration curve, 20 μl of the stock solution are successively diluted with DMSO in such a manner that 5 concentrations of from 2.5 mg/l to 2000 mg/l are obtained. These solutions are likewise measured by HPLC (method see above) and the peak areas are plotted against the concentrations.

A further data set has as its system rats. The experiment in a line: Rat hypothermia - agonism testing. Format: in vivo. Particulars: i.v. administration. The protocol: Five minutes after determination of the basal body temperature via an oesophageal temperature probe, the test substance is administered (i.v.). A control group receives only the solvent of the test substances, likewise i.v. The body temperature is measured 7.5, 15, 30 and 60 minutes after i.v. administration. The group size per dose is 5-7 animals (rats).

T1 sequence (P20272 whole entry): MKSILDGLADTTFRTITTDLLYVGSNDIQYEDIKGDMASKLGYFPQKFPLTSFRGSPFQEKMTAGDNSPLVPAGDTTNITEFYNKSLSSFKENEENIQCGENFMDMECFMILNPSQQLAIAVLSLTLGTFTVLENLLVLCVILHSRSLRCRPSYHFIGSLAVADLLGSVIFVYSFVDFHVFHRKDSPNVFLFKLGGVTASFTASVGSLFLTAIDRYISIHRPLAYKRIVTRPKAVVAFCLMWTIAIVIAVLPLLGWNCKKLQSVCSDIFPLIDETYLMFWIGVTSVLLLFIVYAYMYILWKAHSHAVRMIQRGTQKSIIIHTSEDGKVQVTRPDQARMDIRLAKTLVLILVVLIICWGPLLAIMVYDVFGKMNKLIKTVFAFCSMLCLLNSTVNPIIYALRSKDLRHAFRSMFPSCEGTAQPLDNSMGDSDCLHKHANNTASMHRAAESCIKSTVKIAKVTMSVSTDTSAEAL

For `CC(C)(C)OC(=O)NCC(=O)OC[C@@H]1Cc2cccc(Oc3cccc(OS(=O)(=O)CCCC(F)(F)F)c3)c2C1` [Example 1, (R)-3-[2-(N-tert-butyloxycarbonylglycinyl)-oxymethyl-indanyl-4-oxy]-phenyl 4,4,4-trifluoro-1-butanesulphonate], it took 350 pM to reach half-maximal inhibition on rat CB1 receptor (IC50). As to `CC(C)(C)OC(=O)NCCCCCCC(=O)OC[C@@H]1Cc2cccc(Oc3cccc(OS(=O)(=O)CCCC(F)(F)F)c3)c2C1` [Example 2, (R)-3-[2-(7-N-tert-Butyloxycarbonylaninoheptanoyloxymethyl)-indanyl-4-oxy]-phenyl 4,4,4-trifluoro-1-butanesulphonate], on rat CB1 receptor, the 50% inhibitory concentration (IC50) (commonly the concentration needed to halve the response being measured) turned out to be 130 pM. Turning to `NCC(=O)OC[C@@H]1Cc2cccc(Oc3cccc(OS(=O)(=O)CCCC(F)(F)F)c3)c2C1` [Example 5, (R)-3-(2-Glycinyl-oxymethyl)-indanyl-4-oxy)-phenyl 4,4,4-trifluoro-1-butanesulphonate hydrochloride], the solubility (as a rule, how much of the substance goes into solution per volume) at 1 h in data set [1] stood at 720 µg/mL. For the same compound, the concentration for half-maximal inhibition (IC50) on rat CB1 receptor amounted to 110 pM. Besides, the “ED−1° C. (effective dose for 1° C. body temperature reduction)” value with rats is listed as 0.03 mg/kg. Take `NCCCCCCC(=O)OC[C@@H]1Cc2cccc(Oc3cccc(OS(=O)(=O)CCCC(F)(F)F)c3)c2C1` [Example 6, (R)-3-[2-(7-Aminoheptanoyloxymethyl)-indanyl-4-oxy)-phenyl 4,4,4-trifluoro-1-butanesulphonate hydrochloride]: the concentration for half-maximal inhibition (IC50) on rat CB1 receptor was 850 pM. This lies in the sub-nanomolar range.

At rat CB1 receptor, `NCCC(=O)OC[C@@H]1Cc2cccc(Oc3cccc(OS(=O)(=O)CCCC(F)(F)F)c3)c2C1` [Example 7, (R)-3-[2-(3-Aminopropanoyloxymethyl)-indanyl-4-oxy)-phenyl 4,4,4-trifluoro-1-butanesulphonate hydrochloride] had a half-maximal inhibitory concentration (IC50) of 400 pM.

`CC(C)[C@H](N)C(=O)OC[C@@H]1Cc2cccc(Oc3cccc(OS(=O)(=O)CCCC(F)(F)F)c3)c2C1` [Example 8, (R)-3-[2-((S)-Valinyloxymethyl)-indanyl-4-oxy]-phenyl 4,4,4-trifluoro-1-butanesulphonate hydrochloride] registered a half-maximal inhibitory concentration (IC50) against rat CB1 receptor of 200 pM.
